Legend:
Assay in all cases: relative viability (nuclei count vs DMSO), 5 days (fraction); higher = more cells survive
NCI-H441 = test system: NCI-H441
Procedure, shortened: (§1)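 Values are medians from duplicate plates. Each reflects relative viability, defined as the nuclei count of treated wells over that of vehicle wells. Lung cancer cell lines in 1536-well plates were pin-tool dosed one day after seeding with one drug alone or with a fixed anchor-drug dose plus five library-drug doses (not always all listed) in √10 steps, then fixed, stained and imaged at 4× after 5 days.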

HCC-44 = test system: HCC-44
Procedure, shortened: as §1

NCI-H647 = test system: NCI-H647
Procedure, shortened: as §1

HCC-366 = test system: HCC-366
Procedure, shortened: as §1

H3255 = test system: H3255
Procedure, shortened: as §1

LCLC-103H = test system: LCLC-103H
Procedure, shortened: as §1

NCI-H1755 = test system: NCI-H1755
Procedure, shortened: as §1

NCI-H596 = test system: NCI-H596
Procedure, shortened: as §1

NCI-H2009 = test system: NCI-H2009
Procedure, shortened: as §1

PC-3 [JPC-3] = test system: PC-3 [JPC-3]
Procedure, shortened: as §1

NCI-H2405 = test system: NCI-H2405
Procedure, shortened: as §1

NCI-H23 = test system: NCI-H23
Procedure, shortened: as §1

UMC-11 = test system: UMC-11
Procedure, shortened: as §1

NCI-H2347 = test system: NCI-H2347
Procedure, shortened: as §1

NCI-H3122 = test system: NCI-H3122
Procedure, shortened: as §1

LXF-289 = test system: LXF-289
Procedure, shortened: as §1

NCI-H2023 = test system: NCI-H2023
Procedure, shortened: as §1

A-427 = test system: A-427
Procedure, shortened: as §1

PC-14 = test system: PC-14
Procedure, shortened: as §1

NCI-H460 = test system: NCI-H460
Procedure, shortened: as §1

NCI-H1437 = test system: NCI-H1437
Procedure, shortened: as §1

ABC-1 = test system: ABC-1
Procedure, shortened: as §1

`COCC1(CO)C(=O)C2CCN1CC2` (stereo not drawn) [PRIMA-1MET] + O=C(c1cc(Cc2n[nH]c(=O)c3ccccc23)ccc1F)N1CCN(C(=O)C2CC2)CC1 [Olaparib] (partner 8 µM) was tested, and the relative viability (NCI-H441; first compound 0.2 µM) was 0.559, the relative viability (NCI-H441; first compound 0.6325 µM) was 0.674 and the relative viability (NCI-H441; first compound 2 µM) was 0.615. The relative viability (NCI-H441; first compound 6.325 µM) was 0.505, the relative viability (NCI-H441; first compound 20 µM) was 0.407 and the relative viability (HCC-44; first compound 0.2 µM) was 1.06. It also gave a relative viability (HCC-44; first compound 0.6325 µM) of 0.969, a relative viability (HCC-44; first compound 2 µM) of 1.12 and a relative viability (HCC-44; first compound 6.325 µM) of 0.969. The relative viability (HCC-44; first compound 20 µM) was 0.945, the relative viability (NCI-H647; first compound 0.2 µM) was 0.461 and the relative viability (NCI-H647; first compound 0.6325 µM) was 0.614. The relative viability (NCI-H647; first compound 2 µM) was 0.722, the relative viability (NCI-H647; first compound 6.325 µM) was 0.607 and the relative viability (NCI-H647; first compound 20 µM) was 0.593. For the same compound, the relative viability (HCC-366; first compound 0.2 µM) was 0.396, the relative viability (HCC-366; first compound 0.6325 µM) was 0.346 and the relative viability (HCC-366; first compound 2 µM) was 0.328. The relative viability (HCC-366; first compound 6.325 µM) was 0.34, the relative viability (HCC-366; first compound 20 µM) was 0.0865 and the relative viability (H3255; first compound 0.2 µM) was 0.627. The relative viability (H3255; first compound 0.6325 µM) was 0.502, the relative viability (H3255; first compound 2 µM) was 0.576 and the relative viability (H3255; first compound 6.325 µM) was 0.606. It also gave a relative viability (H3255; first compound 20 µM) of 0.533, a relative viability (LCLC-103H; first compound 0.2 µM) of 0.841 and a relative viability (LCLC-103H; first compound 0.6325 µM) of 0.717. For the same compound, the relative viability (LCLC-103H; first compound 2 µM) was 0.711, the relative viability (LCLC-103H; first compound 6.325 µM) was 0.8 and the relative viability (LCLC-103H; first compound 20 µM) was 0.703. The relative viability (NCI-H1755; first compound 0.2 µM) was 0.867, the relative viability (NCI-H1755; first compound 0.6325 µM) was 0.904 and the relative viability (NCI-H1755; first compound 2 µM) was 0.782. It also gave a relative viability (NCI-H1755; first compound 6.325 µM) of 0.805, a relative viability (NCI-H1755; first compound 20 µM) of 0.817 and a relative viability (NCI-H596; first compound 0.2 µM) of 0.718. The relative viability (NCI-H596; first compound 0.6325 µM) was 0.652, the relative viability (NCI-H596; first compound 2 µM) was 0.6 and the relative viability (NCI-H596; first compound 6.325 µM) was 0.735. It also gave a relative viability (NCI-H596; first compound 20 µM) of 0.238, a relative viability (NCI-H2009; first compound 0.2 µM) of 0.657 and a relative viability (NCI-H2009; first compound 0.6325 µM) of 0.814. For the same compound, the relative viability (NCI-H2009; first compound 2 µM) was 0.709, the relative viability (NCI-H2009; first compound 6.325 µM) was 0.631 and the relative viability (NCI-H2009; first compound 20 µM) was 0.202. It also gave a relative viability (PC-3 [JPC-3]; first compound 0.2 µM) of 1.4, a relative viability (PC-3 [JPC-3]; first compound 0.6325 µM) of 1.26 and a relative viability (PC-3 [JPC-3]; first compound 2 µM) of 1.11. For the same compound, the relative viability (PC-3 [JPC-3]; first compound 6.325 µM) was 1.14, the relative viability (PC-3 [JPC-3]; first compound 20 µM) was 0.981 and the relative viability (NCI-H2405; first compound 0.2 µM) was 0.947. The relative viability (NCI-H2405; first compound 0.6325 µM) was 0.986, the relative viability (NCI-H2405; first compound 6.325 µM) was 0.88 and the relative viability (NCI-H2405; first compound 20 µM) was 0.167. For the same compound, the relative viability (NCI-H23; first compound 0.2 µM) was 0.313, the relative viability (NCI-H23; first compound 0.6325 µM) was 0.291 and the relative viability (NCI-H23; first compound 2 µM) was 0.287. The relative viability (NCI-H23; first compound 6.325 µM) was 0.27, the relative viability (NCI-H23; first compound 20 µM) was 0.082 and the relative viability (UMC-11; first compound 0.2 µM) was 0.526. For the same compound, the relative viability (UMC-11; first compound 0.6325 µM) was 0.312, the relative viability (UMC-11; first compound 2 µM) was 0.376 and the relative viability (UMC-11; first compound 6.325 µM) was 0.417. The relative viability (UMC-11; first compound 20 µM) was 0.406, the relative viability (NCI-H2347; first compound 0.2 µM) was 0.641 and the relative viability (NCI-H2347; first compound 0.6325 µM) was 0.517. The relative viability (NCI-H2347; first compound 2 µM) was 0.559, the relative viability (NCI-H2347; first compound 6.325 µM) was 0.624 and the relative viability (NCI-H2347; first compound 20 µM) was 0.433. The relative viability (NCI-H3122; first compound 0.2 µM) was 0.661, the relative viability (NCI-H3122; first compound 0.6325 µM) was 0.55 and the relative viability (NCI-H3122; first compound 2 µM) was 0.614. It also gave a relative viability (NCI-H3122; first compound 6.325 µM) of 0.698, a relative viability (NCI-H3122; first compound 20 µM) of 0.621 and a relative viability (LXF-289; first compound 0.2 µM) of 1.14. It also gave a relative viability (LXF-289; first compound 0.6325 µM) of 1.03, a relative viability (LXF-289; first compound 2 µM) of 1.06 and a relative viability (LXF-289; first compound 6.325 µM) of 1.06. It also gave a relative viability (LXF-289; first compound 20 µM) of 0.999, a relative viability (NCI-H2023; first compound 0.2 µM) of 0.576 and a relative viability (NCI-H2023; first compound 0.6325 µM) of 0.478. The relative viability (NCI-H2023; first compound 2 µM) was 0.489, the relative viability (NCI-H2023; first compound 6.325 µM) was 0.442 and the relative viability (NCI-H2023; first compound 20 µM) was 0.29. It also gave a relative viability (A-427; first compound 0.2 µM) of 0.918, a relative viability (A-427; first compound 0.6325 µM) of 0.607 and a relative viability (A-427; first compound 2 µM) of 0.746. For the same compound, the relative viability (A-427; first compound 6.325 µM) was 0.765, the relative viability (A-427; first compound 20 µM) was 0.687 and the relative viability (PC-14; first compound 0.2 µM) was 0.261. It also gave a relative viability (PC-14; first compound 0.6325 µM) of 0.208, a relative viability (PC-14; first compound 2 µM) of 0.24 and a relative viability (PC-14; first compound 6.325 µM) of 0.275. The relative viability (PC-14; first compound 20 µM) was 0.209, the relative viability (NCI-H460; first compound 0.2 µM) was 0.532 and the relative viability (NCI-H460; first compound 0.6325 µM) was 0.337. It also gave a relative viability (NCI-H460; first compound 2 µM) of 0.384, a relative viability (NCI-H460; first compound 6.325 µM) of 0.451 and a relative viability (NCI-H460; first compound 20 µM) of 0.162. For the same compound, the relative viability (NCI-H1437; first compound 0.2 µM) was 0.641, the relative viability (NCI-H1437; first compound 0.6325 µM) was 0.556 and the relative viability (NCI-H1437; first compound 2 µM) was 0.627. It also gave a relative viability (NCI-H1437; first compound 6.325 µM) of 0.65, a relative viability (NCI-H1437; first compound 20 µM) of 0.614 and a relative viability (ABC-1; first compound 0.2 µM) of 0.993. The relative viability (ABC-1; first compound 2 µM) was 0.664, the relative viability (ABC-1; first compound 6.325 µM) was 0.662 and the relative viability (ABC-1; first compound 20 µM) was 0.616.
